Some test systems named below: SF-295 CNS; OVCAR-3 ovarian; HT29 colon; SF-268 CNS; SF-539 CNS; HL-60(TB) leukemia; CAKI-1 renal; ACHN renal; LOX IMVI melanoma; SK-MEL-5 melanoma.
Holding throughout (assay): NCI anticancer screen, dose series, 48 h

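Compound exposure: 48 hours, 5 concentrations, 96-well plates. Here, GI50 denotes the concentration required for 50% inhibition of growth. Definition used: TGI = concentration required for complete inhibition of growth.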

Take `CC(=O)CC(=O)CCCC(=O)Nc1ccc(Cl)cc1Cl`: the TGI with SF-295 CNS, in the assay on OVCAR-3 ovarian, with HT29 colon, with SF-268 CNS, with SF-539 CNS and in the assay on HL-60(TB) leukemia was above 100 µM in each case. Further, the TGI in the assay with CAKI-1 renal, with ACHN renal and in the assay on LOX IMVI melanoma was above 100 µM in each case.
In the case of `O=C(Nc1cccc(NS(=O)(=O)c2ccc(F)cc2)c1)c1ccc(-c2ccccc2)cc1`, the GI50 is 2.34 µM in the assay with SF-295 CNS; 2.99 µM in the assay with OVCAR-3 ovarian; 4.85 µM in the assay on HT29 colon; 3.22 µM in the assay with SF-268 CNS; 3.42 µM in the assay on SF-539 CNS; 3.37 µM in the assay on HL-60(TB) leukemia. For the same compound, the GI50 in the assay on SK-MEL-5 melanoma was 1.88 µM; in the assay on CAKI-1 renal, 3.74 µM; in the assay with ACHN renal it was 3.65 µM; in the assay on LOX IMVI melanoma, 2.54 µM. Further, the TGI was 11.8 µM with SF-295 CNS; 15.3 µM with OVCAR-3 ovarian; 18.6 µM with HT29 colon; 66.6 µM in the assay on SF-268 CNS; 12.8 µM in the assay with SF-539 CNS; 12.9 µM in the assay on HL-60(TB) leukemia. Moreover, the TGI in the assay on SK-MEL-5 melanoma is 3.74 µM; in the assay on CAKI-1 renal it was above 100 µM; in the assay with ACHN renal, 42.7 µM; with LOX IMVI melanoma, 6.99 µM.
As to `O=C1c2cccnc2-c2nc(-c3ccccn3)cc3c2c1nc1ccccc13`, the GI50 with SF-295 CNS was 0.423 µM; in the assay on OVCAR-3 ovarian, 0.161 µM; with HT29 colon, 0.85 µM; in the assay with SF-268 CNS, 0.449 µM; with SF-539 CNS, 0.0926 µM; with HL-60(TB) leukemia it was 0.066 µM. Besides, the GI50 in the assay with SK-MEL-5 melanoma is 0.265 µM; in the assay on CAKI-1 renal, 0.119 µM; with ACHN renal it was 0.0333 µM; with LOX IMVI melanoma, 0.287 µM. For the same compound, the TGI in the assay on SF-295 CNS is 1.7 µM; in the assay with OVCAR-3 ovarian, 0.309 µM; in the assay with HT29 colon, 2.95 µM; with SF-268 CNS, 2.5 µM; in the assay with SF-539 CNS it was 0.295 µM; in the assay with SK-MEL-5 melanoma, 1.65 µM. Also, the TGI in the assay with CAKI-1 renal came out at 0.781 µM; in the assay with ACHN renal, 0.368 µM; in the assay on LOX IMVI melanoma, 1.52 µM.
Consider `O=C(Nc1ncc([N+](=O)[O-])s1)c1cccc([N+](=O)[O-])c1`, for which the GI50 is 2.71 µM in the assay with SF-295 CNS; 3.18 µM with OVCAR-3 ovarian; 4.43 µM in the assay on HT29 colon; 8.25 µM in the assay with SF-268 CNS; 3.23 µM in the assay on SF-539 CNS; 2.35 µM with HL-60(TB) leukemia. Further, the GI50 in the assay on SK-MEL-5 melanoma was 2.75 µM; in the assay on CAKI-1 renal it was 3.7 µM; in the assay with ACHN renal, 5.41 µM; with LOX IMVI melanoma, 3.66 µM. For the same compound, the TGI in the assay with SF-295 CNS was 35.1 µM; in the assay with OVCAR-3 ovarian, above 100 µM; in the assay with HT29 colon, 97.2 µM; with SF-268 CNS, above 100 µM; in the assay on SF-539 CNS, 37.1 µM; in the assay on HL-60(TB) leukemia, 8.27 µM. Further, the TGI in the assay on SK-MEL-5 melanoma is 11.5 µM; with CAKI-1 renal, 22.7 µM; in the assay on ACHN renal it was above 68.1 µM; with LOX IMVI melanoma, above 100 µM.
For the compound `CCOC(=O)c1[nH]c2cccc3c2c1CC(Br)C3=O` (stereo not drawn), the TGI stood at 32.6 µM in the assay with SF-295 CNS; 26.2 µM with OVCAR-3 ovarian; 47.7 µM in the assay with HT29 colon; 32.9 µM in the assay on SF-268 CNS; 30.4 µM in the assay with SF-539 CNS; 10.7 µM in the assay with HL-60(TB) leukemia. Besides, the TGI was determined as 33.1 µM with SK-MEL-5 melanoma, 23.6 µM in the assay on CAKI-1 renal, 20.2 µM in the assay on ACHN renal and 31.8 µM in the assay with LOX IMVI melanoma.
In the case of `N#CC12CCC(O)C(CC1)C2=O` (stereo not drawn), the TGI in the assay with SF-295 CNS, in the assay on OVCAR-3 ovarian, with HT29 colon, with SF-268 CNS, in the assay on SF-539 CNS and in the assay on HL-60(TB) leukemia was above 100 µM each time. Further, the TGI was above 100 µM in the assay with SK-MEL-5 melanoma, above 100 µM in the assay with CAKI-1 renal, above 100 µM in the assay on ACHN renal and 39.3 µM in the assay on LOX IMVI melanoma.
In the case of `COC(=O)c1ccc(-c2nc3cc(F)c(F)cc3nc2C#N)cc1`, the GI50 is 7.26 µM in the assay on SF-295 CNS; 1.71 µM in the assay on OVCAR-3 ovarian; 11.1 µM in the assay with HT29 colon; 1.5 µM in the assay with SF-268 CNS; 10.7 µM in the assay on SF-539 CNS; 3.23 µM with HL-60(TB) leukemia. The GI50 with SK-MEL-5 melanoma is 6.87 µM; with CAKI-1 renal, 8.48 µM; in the assay on ACHN renal it was 11.5 µM; with LOX IMVI melanoma it was 0.948 µM. For the same compound, the TGI was 15.5 µM in the assay with SF-295 CNS; 4.99 µM with OVCAR-3 ovarian; 35.6 µM in the assay with HT29 colon; 4.64 µM with SF-268 CNS; 18.7 µM in the assay on SF-539 CNS; 9.51 µM in the assay with HL-60(TB) leukemia. Moreover, the TGI with SK-MEL-5 melanoma was 13.7 µM; with CAKI-1 renal it was 18.5 µM; with ACHN renal, 26.3 µM; with LOX IMVI melanoma, 1.79 µM.
As for `O=C(O)CSCC(=O)c1ccccc1`, the TGI with SF-295 CNS, in the assay with OVCAR-3 ovarian, in the assay with HT29 colon, in the assay on SF-268 CNS, with SF-539 CNS and with HL-60(TB) leukemia was above 100 µM in each case. In addition, the TGI in the assay with SK-MEL-5 melanoma, with CAKI-1 renal, in the assay on ACHN renal and in the assay with LOX IMVI melanoma was above 100 µM throughout.
`COc1cccc2c(Nc3ccc(C(=O)NCCNCCO)cc3)cc(-c3ccccc3)nc12`: the GI50 was 40.9 µM in the assay with SF-295 CNS; 39.2 µM in the assay on OVCAR-3 ovarian; 36 µM in the assay with HT29 colon; 40.9 µM in the assay on SF-539 CNS; 26.6 µM in the assay on HL-60(TB) leukemia; 38.6 µM with SK-MEL-5 melanoma. Also, the GI50 was above 100 µM in the assay on CAKI-1 renal and 3.17 µM in the assay with LOX IMVI melanoma. The TGI was above 100 µM with SF-295 CNS; above 100 µM in the assay with OVCAR-3 ovarian; above 100 µM with HT29 colon; above 100 µM in the assay with SF-539 CNS; 99.2 µM in the assay with HL-60(TB) leukemia; above 100 µM in the assay with SK-MEL-5 melanoma. The TGI is above 100 µM in the assay with CAKI-1 renal and 23.2 µM with LOX IMVI melanoma.
`NCCCn1c2c(c3ccccc3c1=O)C(=O)c1cc3c(cc1-2)OCO3`: the GI50 with SF-295 CNS was 0.297 µM; in the assay on OVCAR-3 ovarian, 0.766 µM; with HT29 colon, 0.17 µM; in the assay on SF-268 CNS it was 1.51 µM; in the assay with SF-539 CNS, 0.242 µM; with HL-60(TB) leukemia, 0.117 µM. The GI50 is 0.122 µM in the assay on SK-MEL-5 melanoma, 0.247 µM with CAKI-1 renal, 0.061 µM with ACHN renal and 0.247 µM in the assay on LOX IMVI melanoma. The TGI was 1.74 µM with SF-295 CNS; 3.85 µM in the assay on OVCAR-3 ovarian; 1.35 µM in the assay with HT29 colon; 15 µM with SF-268 CNS; 1.31 µM in the assay with SF-539 CNS; 0.802 µM in the assay with SK-MEL-5 melanoma. The results for the TGI in the assay on CAKI-1 renal, with ACHN renal and in the assay on LOX IMVI melanoma were 2.27 µM, 0.295 µM and 3.57 µM, respectively.

The values are drawn from PubChem BioAssay (NCI).
